Values joined by “and” are separate entries in the source; they are usually repeats but may differ in a detail not shown here. Equal entries are not always repeated. Inconclusive results and toxic doses are left out.
Test system: CD2F1 mice, L1210 leukemia ip, survival T/C
Test: NCI In Vivo Anticancer Drug Screen. Data for tumor model L1210 Leukemia (intraperitoneal) in CD2F1 (CDF1) mice
Conditions: higher = longer survival
Procedure, shortened: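 Mice carrying a transplanted tumor received test compound or vehicle alone. The value is the measurement in the treated group divided by that in the vehicle-treated control group.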

[1] = endpoint: mean survival time, dose: 50.0 mg/kg/injection, schedule: Q01DX009 (ip), vehicle: saline with Tween-80
[2] = endpoint: mean survival time, dose: 100.0 mg/kg/injection, schedule: Q01DX009 (ip), vehicle: saline with Tween-80
[3] = endpoint: mean survival time, dose: 100.0 mg/kg/injection, schedule: Q04DX003 (ip), vehicle: saline with Tween-80
[4] = endpoint: mean survival time, dose: 200.0 mg/kg/injection, schedule: Q01DX009 (ip), vehicle: saline with Tween-80

Compound: CC1=CC(C(=O)O)P(C)(=O)C1 (centres undefined)
- T/C (endpoint: mean survival time, dose: 25.0 mg/kg/injection, schedule: Q01DX009 (ip), vehicle: saline with Tween-80): 101 % of control
- T/C (endpoint: mean survival time, dose: 25.0 mg/kg/injection, schedule: Q04DX002 (ip), vehicle: saline with Tween-80): 100 % of control
- T/C [1]: 101 % of control
- T/C (endpoint: mean survival time, dose: 50.0 mg/kg/injection, schedule: Q04DX002 (ip), vehicle: saline with Tween-80): 91 % of control
- T/C [2]: 104 % of control
- T/C (endpoint: mean survival time, dose: 100.0 mg/kg/injection, schedule: Q04DX002 (ip), vehicle: saline with Tween-80): 95 % of control

Compound: C=C(Cl)C(=NC(C)(C)C)Nc1ccccc1C
- T/C (endpoint: median survival time, dose: 3.12 mg/kg/injection, schedule: Q01DX009 (ip), vehicle: Klucel (hydroxypropylcellulose) (HPC)): 101 % of control
- T/C (endpoint: median survival time, dose: 6.25 mg/kg/injection, schedule: Q01DX009 (ip), vehicle: Klucel (hydroxypropylcellulose) (HPC)): 109 % of control
- T/C (endpoint: median survival time, dose: 12.5 mg/kg/injection, schedule: Q01DX009 (ip), vehicle: Klucel (hydroxypropylcellulose) (HPC)): 118 % of control
- T/C (endpoint: median survival time, dose: 25.0 mg/kg/injection, schedule: Q01DX009 (ip), vehicle: Klucel (hydroxypropylcellulose) (HPC)): 114 % of control
- T/C (endpoint: median survival time, dose: 50.0 mg/kg/injection, schedule: Q01DX009 (ip), vehicle: Klucel (hydroxypropylcellulose) (HPC)): 114 % of control
- T/C (endpoint: median survival time, dose: 50.0 mg/kg/injection, schedule: Q01DX009 (ip), vehicle: saline): 103 % of control
- T/C (endpoint: median survival time, dose: 100.0 mg/kg/injection, schedule: Q01DX009 (ip), vehicle: saline): 108 % of control
- T/C (endpoint: median survival time, dose: 200.0 mg/kg/injection, schedule: Q01DX009 (ip), vehicle: saline): 111 % of control

Compound: NC(N)=NCc1ccccc1
- T/C (endpoint: mean survival time, dose: 10.0 mg/kg/injection, schedule: Q04DX003 (ip), vehicle: saline): 106 % of control
- T/C (endpoint: mean survival time, dose: 12.5 mg/kg/injection, schedule: Q04DX003 (ip), vehicle: saline): 100 % of control
- T/C (endpoint: mean survival time, dose: 20.0 mg/kg/injection, schedule: Q04DX003 (ip), vehicle: saline): 103 % of control
- T/C (endpoint: mean survival time, dose: 25.0 mg/kg/injection, schedule: Q04DX003 (ip), vehicle: saline): 96 % of control
- T/C (endpoint: mean survival time, dose: 40.0 mg/kg/injection, schedule: Q04DX003 (ip), vehicle: saline): 100 % of control
- T/C (endpoint: mean survival time, dose: 50.0 mg/kg/injection, schedule: Q04DX003 (ip), vehicle: saline): 97 % of control and 100 % of control

Compound: NCCS/C=C/C(=O)O
- T/C (endpoint: mean survival time, dose: 100.0 mg/kg/injection, schedule: Q04DX003 (ip), vehicle: saline): 97 % of control
- T/C (endpoint: mean survival time, dose: 200.0 mg/kg/injection, schedule: Q04DX003 (ip), vehicle: saline): 109 % of control
- T/C (endpoint: mean survival time, dose: 400.0 mg/kg/injection, schedule: Q04DX003 (ip), vehicle: saline): 101 % of control

Compound: CC1NC=NC1C(c1ccccc1)c1ccccc1 (centres undefined)
- T/C (endpoint: mean survival time, dose: 25.0 mg/kg/injection, schedule: Q04DX003 (ip), vehicle: saline with Tween-80): 102 % of control
- T/C (endpoint: mean survival time, dose: 50.0 mg/kg/injection, schedule: Q04DX003 (ip), vehicle: saline with Tween-80): 109 % of control
- T/C [3]: 101 % of control

Compound: C1CC[N-]CC1.[Cl][Pt+2][Cl].[NH2-]
- T/C (endpoint: mean survival time, dose: 6.25 mg/kg/injection, schedule: Q04DX003 (ip), vehicle: distilled water + Tween-80): 100 % of control
- T/C (endpoint: mean survival time, dose: 12.5 mg/kg/injection, schedule: Q04DX003 (ip), vehicle: distilled water + Tween-80): 96 % of control
- T/C (endpoint: mean survival time, dose: 25.0 mg/kg/injection, schedule: Q04DX003 (ip), vehicle: distilled water + Tween-80): 94 % of control
- T/C (endpoint: mean survival time, dose: 50.0 mg/kg/injection, schedule: Q04DX003 (ip), vehicle: distilled water + Tween-80): 91 % of control

Compound: CC1(CO)C2CCC(CC2)C1CO (centres undefined)
- T/C [1]: 102 % of control
- T/C (endpoint: mean survival time, dose: 100.0 mg/kg/injection, schedule: Q01DX001 (ip), vehicle: saline with Tween-80): 95 % of control
- T/C [2]: 96 % of control
- T/C (endpoint: mean survival time, dose: 200.0 mg/kg/injection, schedule: Q01DX001 (ip), vehicle: saline with Tween-80): 94 % of control
- T/C [4]: 96 % of control

Compound: O=C(/C=C\c1ccc(/C=C/C(=O)Nc2cccc(C3=NCCCN3)c2)cc1)Nc1cccc(C2=NCCCN2)c1
- T/C (endpoint: median survival time, dose: 5.0 mg/kg/injection, schedule: Q01DX009 (ip), vehicle: Klucel (hydroxypropylcellulose) (HPC)): 175 % of control and 196 % of control
- T/C (endpoint: median survival time, dose: 10.0 mg/kg/injection, schedule: Q01DX009 (ip), vehicle: Klucel (hydroxypropylcellulose) (HPC)): 185 % of control and 250 % of control
- T/C (endpoint: median survival time, dose: 20.0 mg/kg/injection, schedule: Q01DX009 (ip), vehicle: Klucel (hydroxypropylcellulose) (HPC)): 113 % of control

Compound: Cc1ccc2nc(-c3ccc4nc(-c5ccc(N)cc5)sc4c3)sc2c1
- T/C [1]: 94 % of control
- T/C [2]: 97 % of control
- T/C [4]: 94 % of control

Compound: C=CCSc1cccc2ccccc12
- T/C [2]: 90 % of control
- T/C [3]: 104 % of control
- T/C [4]: 96 % of control
- T/C (endpoint: mean survival time, dose: 200.0 mg/kg/injection, schedule: Q04DX003 (ip), vehicle: saline with Tween-80): 104 % of control
- T/C (endpoint: mean survival time, dose: 400.0 mg/kg/injection, schedule: Q04DX003 (ip), vehicle: saline with Tween-80): 106 % of control

Compound: CC1(C)CC(=O)C2=C(C1)OC1=C(C(=O)CC(C)(C)C1)C2c1ccccc1[N+](=O)[O-]
- T/C [2]: 100 % of control
- T/C [4]: 95 % of control
- T/C (endpoint: mean survival time, dose: 400.0 mg/kg/injection, schedule: Q01DX009 (ip), vehicle: saline with Tween-80): 94 % of control
